Tested on: 138582-337-R-J1-PDC spheroids with HUVEC/MSC, viability
Experiment: Anticancer human tumor 138582-337-R-J1-PDC patient-derived Merkel cell tumor cell line growth inhibition [IpAb]
Details: for IC50: curve of first compound; for viability, T/C: stronger effect = lower value
Method in brief: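 Combinations with ipatasertib or abemaciclib were tested on tumour spheroids holding HUVEC (25%) and MSC (15%) alongside 60% malignant cells. Top concentration was at or near clinical Cmax (10 microM if undefined), descending in half-log steps.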
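Further: spheroids exposed to compounds for seven days.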
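Wherever viability, T/C is given: 100% = DMSO vehicle control viability.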

Compound: CCCS(=O)(=O)Nc1ccc(F)c(C(=O)c2c[nH]c3ncc(-c4ccc(Cl)cc4)cc23)c1F + CCN1CCN(Cc2ccc(Nc3ncc(F)c(-c4cc(F)c5nc(C)n(C(C)C)c5c4)n3)nc2)CC1
- IC50 (second compound 0.01 µM): > 10 µM
- IC50 (second compound 0.0316 µM): > 10 µM
- IC50 (second compound 0.1 µM): 7.49 µM
- IC50 (second compound 0.316 µM): > 10 µM
- IC50 (second compound 1 µM): > 10 µM
- viability, T/C (second compound 0.01 µM, first compound 0.0316 µM): 99.8%
- viability, T/C (second compound 0.01 µM, first compound 0.1 µM): 103%
- viability, T/C (second compound 0.01 µM, first compound 0.316 µM): 95.9%
- viability, T/C (second compound 0.01 µM, first compound 1 µM): 98.8%
- viability, T/C (second compound 0.01 µM, first compound 3.16 µM): 112%
- viability, T/C (second compound 0.01 µM, first compound 10 µM): 81.9%
- viability, T/C (second compound 0.0316 µM, first compound 0.0316 µM): 97.9%
- viability, T/C (second compound 0.0316 µM, first compound 0.1 µM): 96.8%
- viability, T/C (second compound 0.0316 µM, first compound 0.316 µM): 96.8%
- viability, T/C (second compound 0.0316 µM, first compound 1 µM): 97.2%
- viability, T/C (second compound 0.0316 µM, first compound 3.16 µM): 97.8%
- viability, T/C (second compound 0.0316 µM, first compound 10 µM): 74.8%
- viability, T/C (second compound 0.1 µM, first compound 0.0316 µM): 93.2%
- viability, T/C (second compound 0.1 µM, first compound 0.1 µM): 87%
- viability, T/C (second compound 0.1 µM, first compound 0.316 µM): 93.5%
- viability, T/C (second compound 0.1 µM, first compound 1 µM): 101%
- viability, T/C (second compound 0.1 µM, first compound 3.16 µM): 93.7%
- viability, T/C (second compound 0.1 µM, first compound 10 µM): 35.4%
- viability, T/C (second compound 0.316 µM, first compound 0.0316 µM): 105%
- viability, T/C (second compound 0.316 µM, first compound 0.1 µM): 95%
- viability, T/C (second compound 0.316 µM, first compound 0.316 µM): 106%
- viability, T/C (second compound 0.316 µM, first compound 1 µM): 90.6%
- viability, T/C (second compound 0.316 µM, first compound 3.16 µM): 103%
- viability, T/C (second compound 0.316 µM, first compound 10 µM): 78.2%
- viability, T/C (second compound 1 µM, first compound 0.0316 µM): 99.4%
- viability, T/C (second compound 1 µM, first compound 0.1 µM): 93.8%
- viability, T/C (second compound 1 µM, first compound 0.316 µM): 89.1%
- viability, T/C (second compound 1 µM, first compound 1 µM): 86.3%
- viability, T/C (second compound 1 µM, first compound 3.16 µM): 94.1%
- viability, T/C (second compound 1 µM, first compound 10 µM): 61.1%

Compound: Cn1cnc2c(F)c(Nc3ccc(Br)cc3Cl)c(C(=O)NOCCO)cc21 + CCN1CCN(Cc2ccc(Nc3ncc(F)c(-c4cc(F)c5nc(C)n(C(C)C)c5c4)n3)nc2)CC1
- IC50 (second compound 0.01 µM): > 3 µM
- IC50 (second compound 0.0316 µM): > 3 µM
- IC50 (second compound 0.1 µM): > 3 µM
- IC50 (second compound 0.316 µM): > 3 µM
- IC50 (second compound 1 µM): 1.88 µM
- viability, T/C (second compound 0.01 µM, first compound 0.00949 µM): 102%
- viability, T/C (second compound 0.01 µM, first compound 0.03 µM): 94.5%
- viability, T/C (second compound 0.01 µM, first compound 0.0949 µM): 75.3%
- viability, T/C (second compound 0.01 µM, first compound 0.3 µM): 81.2%
- viability, T/C (second compound 0.01 µM, first compound 0.949 µM): 94%
- viability, T/C (second compound 0.01 µM, first compound 3 µM): 93.1%
- viability, T/C (second compound 0.0316 µM, first compound 0.00949 µM): 94.8%
- viability, T/C (second compound 0.0316 µM, first compound 0.03 µM): 91%
- viability, T/C (second compound 0.0316 µM, first compound 0.0949 µM): 67.1%
- viability, T/C (second compound 0.0316 µM, first compound 0.3 µM): 79.6%
- viability, T/C (second compound 0.0316 µM, first compound 0.949 µM): 86.8%
- viability, T/C (second compound 0.0316 µM, first compound 3 µM): 88.3%
- viability, T/C (second compound 0.1 µM, first compound 0.00949 µM): 102%
- viability, T/C (second compound 0.1 µM, first compound 0.03 µM): 88.2%
- viability, T/C (second compound 0.1 µM, first compound 0.0949 µM): 78.3%
- viability, T/C (second compound 0.1 µM, first compound 0.3 µM): 68.7%
- viability, T/C (second compound 0.1 µM, first compound 0.949 µM): 76.9%
- viability, T/C (second compound 0.1 µM, first compound 3 µM): 73.1%
- viability, T/C (second compound 0.316 µM, first compound 0.00949 µM): 88.8%
- viability, T/C (second compound 0.316 µM, first compound 0.03 µM): 90.8%
- viability, T/C (second compound 0.316 µM, first compound 0.0949 µM): 83%
- viability, T/C (second compound 0.316 µM, first compound 0.3 µM): 66%
- viability, T/C (second compound 0.316 µM, first compound 0.949 µM): 72.9%
- viability, T/C (second compound 0.316 µM, first compound 3 µM): 56.3%
- viability, T/C (second compound 1 µM, first compound 0.00949 µM): 96.1%
- viability, T/C (second compound 1 µM, first compound 0.03 µM): 90.2%
- viability, T/C (second compound 1 µM, first compound 0.0949 µM): 78%
- viability, T/C (second compound 1 µM, first compound 0.3 µM): 74.5%
- viability, T/C (second compound 1 µM, first compound 0.949 µM): 73.1%
- viability, T/C (second compound 1 µM, first compound 3 µM): 37.1%

From PubChem BioAssay AID2060343 (Molecular Pharmacology Branch, DTP, NCI, 2025)
